{
  "source": "patent US20250276996A1",
  "about": "“CATIONICALLY-ENFRAMED HIGH DENSITY AROMATIC PEPTIDES” (Research Foundation of the City University of New York, priority 2022, published 2025)",
  "key": {"MDBK cells": {"test_system": "MDBK cells", "assay": "Mitochondrial membrane potential in serum-starved cells (MitoTracker Red)", "assay_type": "cell-based, bovine", "description": "MDBK cells incubated in serum free media for 5-7 days in the presence or absence of 1 μM of biotin-HDAP2. At the end of the incubation period 100 nM MitoTracker was added to the cells and incubated for 15 minutes. Then, media was removed and cells were fixed in 4% PFA. Cells were then visualized using a fluorescent microscope (Nikon Eclipse-ci-SRS). Experiments were conducted 5 times in triplicate for each experimental condition.\nTo measure the effects of biotin-HDAP2 on the mitochondrial potential and cellular oxidative stress, cells were cultured in DMEM/F12 without fetal bovine serum (FSB) in the presence or absence of biotin-HDAP2 (1 μM). After 3 days, nuclei were labeled with Hoechst 33342 (10 μg/ml) and cells were incubated for 15 minutes at 37° C. with MTR (100 nM) to evaluate the strength of the mitochondrial potential or were incubated with the general oxidative stress indicator CM-H2DCFDA (5 μM, Invitrogen, Carlsbad, CA) for 15 min at 37° C. In each instance, cells were imaged immediately after staining and prior to fixation.\nUnless otherwise noted, data for all tissue culture experiments were collected from three independent trials, with each experiment done in triplicate. For each experiment, 4-6 fields of cells were randomly selected and imaged using a Nikon Eclipse 50i fluorescent microscope with a 40X immersion objective (NA 0.8) and using filters specific for either green or red wavelengths as appropriate (ex488 nm/ex515-540 nm). Photooxidation of the indicator dyes were minimized by using single exposures to the fluorescence for each field imaged. Fluorescence intensity was analyzed using ImageJ (NIH), and MTR and CM-H2DCFDA fluorescence were normalized to Hoechst fluorescence to account for differences in cell number in each field. Differences among groups were compared by Student's t-test and P values less than 0.05 were considered significant. All data are expressed as means±SEM."}, "HK-2 cells": {"test_system": "HK-2 cells", "assay": "PCNA expression in serum-starved cells", "assay_type": "cell-based", "settings": "serum starved for 3 days", "text": "FIG. 18B are representative images of HK-2 cells serum starved for 3 days in the presence or absence of biotin-HDAP2 (SEQ ID NO: 1), HDAP4 (SEQ ID NO: 13), and biotin-HDAP6 (SEQ ID NO: 10) and then tested for the expression of Proliferating Cell Nuclear Antigen (PCNA) (bottom row), a positive marker for cell proliferation. The Hoechst 33342 probe (Hc) was used to label the nucleus to determine cellular localization (top row)."}, "[1]": {"test_system": "antimycin-induced scratching", "assay": "Topical antimycin-induced scratching", "assay_type": "in vivo, C57BL/6J mice", "settings": "100 μM topical with 200 μM antimycin, 60 min", "description": "However, antimycin-induced scratching in mice was […] by biotin-free HDAP2. Dermal administration of antimycin, a mitochondrial Complex III irreversible inhibitor, is known to induce ROS formation and oxidative stress in C fibers of sensory neurons, resulting in severe scratching in mice. Biotin-HDAP2 and biotin-free HDAP2 were tested to see if either can inhibit topical antimycin-induced itching in 12 months old C57BL/6J mice. […] Specifically, 200 μM of topical antimycin in methanol induced itching, which was monitored for 60 min. […] Error bars represent SEM (n=3) **P<0.001. Topical administration of 100 μM of biotin-free HDAP2 with antimycin increased scratching by 2.5 fold. Error bars represent SEM (n=3) ***P<0.0001."}, "ARPE-19 cells": {"test_system": "ARPE-19 cells", "assay": "Restoration of mitochondrial membrane potential after 3 days of serum starvation (TMRM)", "assay_type": "cell-based", "settings": "2 hours incubation after 3 days of serum starvation", "text": "Serum starvation for 3 days reduced mitochondrial membrane potential in serum-free controls (SFC), compared to regular cells grown on serum (FBS). […] Error bars represent SEM (n=5) ***P<0.001."}, "retina": {"test_system": "retina", "assay": "Biotin-HDAP2 uptake and distribution in retina", "assay_type": "in vivo, mice", "description": "Biotin-HDAP2 (40 mg/kg) was administered intraperitoneally to mice (male or female) and 60 minutes later retina was collected, fixed and sectioned. […] (FIG. 7A and FIG. 7B).\nBiotin-HDAP2 uptake in retina: Adult animals were injected with 50 mg/kg biotin-HDAP2 (IP; GenScript, Piscataway, NJ) reconstituted in saline and observed for 2 hours before sacrifice. Eyes were marked to record their orientation, and the animals were given an overdose of ketamine (300 mg/kg)/xylazine (60 mg/kg) (IP) before removing each eye from the orbit with forceps. Whole eyes were dropped into 4% paraformaldehyde that was constituted in either 0.1M Tris or phosphate buffers (pH 7.3) and after ten minutes, the cornea, lens and vitreous body were removed to ensure better penetration of the fixative into the retina. The eyecups were returned to the fixative for one hour. Retinas for wholemounts were dissected from the pigment epithelium by cutting along the or a serrata, gently teasing the retina away from the back of the eye and then freeing the retina by severing the optic nerve. Retinas for cryo-sectioning remained in the eyecup, were cryoprotected in 0.1M Tris or phosphate-buffered sucrose (10%, 20% and 30%) prior to embedding in OCT (Polyfreeze, Polysciences) and sectioned at a thickness of 14 μm at −25° C. using a cryostat (Leica CM3050S).\nImmunohistochemistry: Fixed retinas were labeled with cell markers using conventional immunohistochemical protocols to identify cells and structures associated with biotin-HDAP2, and to identify retinal ganglion cells and starburst amacrine cells to assess cell survival following optic nerve crush. Retinas and sections were blocked and permeabilized with 4% normal donkey serum in 0.1M Tris or phosphate buffers with 0.5% Triton-X for 1 hour and then incubated overnight (for sections) or for 3 days (for wholemounts) at 4° C. in selected primary antibodies, and 2% normal donkey serum in the same buffer. […]"}},
  "note": "Non-standard residues stand in square brackets, D forms with d. Residues, ends and D or L forms follow the SMILES beside them. *: point of attachment. Biotin = O=C1N[C@H]2[C@H](CS[C@H]2CCCCC(=O)*)N1",
  "data": [
    {"smiles": "N=C(N)NCCC[C@@H](NC(=O)[C@H](Cc1ccccc1)NC(=O)[C@H](Cc1ccccc1)NC(=O)[C@@H](CCCNC(=N)N)NC(=O)CCCC[C@@H]1SC[C@@H]2NC(=O)N[C@@H]21)C(N)=O", "note": "[biotin-HDAP2, Biotin-dArg-Phe-Phe-dArg-NH2] (Biotin-[dR]FF[dR]-NH2)", "values": [
      {"measurement": "mitochondria membrane potential in starved cells", "setting": "MDBK cells; 1 μM, serum free 5-7 days, 100 nM MitoTracker", "result": "improved mitochondria membrane potential in starved cells"},
      {"measurement": "increase of MitoTracker Red CMXRos fluorescence intensity vs untreated controls", "setting": "MDBK cells; 1 μM, serum starvation", "result": "over 2.5 times"},
      {"measurement": "increase of mitochondrial membrane potential compared to serum-free control", "setting": "MDBK cells; 1 μM, serum-free 3-4 days", "result": 150, "unit": "%"},
      {"measurement": "improvement of mitochondrial potential", "setting": "MDBK cells; FIG. 10D", "result": 2.5, "unit": "fold"},
      {"measurement": "expression of PCNA and cell proliferation", "setting": "HK-2 cells", "result": "increase proliferation expression of PCNA and cell proliferation during serum starvation"},
      {"measurement": "effect on antimycin-induced scratching", "setting": "[1]", "result": "inhibited scratching"},
      {"measurement": "restoration of mitochondrial membrane potential", "setting": "ARPE-19 cells", "result": "restored mitochondrial membrane potential within 2 hours"},
      {"measurement": "distribution in retina", "setting": "retina; 3 mg/kg, IP", "result": "labeled all layers of the retina"},
      {"measurement": "distribution in retina", "setting": "retina; 40 mg/kg intraperitoneally, 60 minutes", "result": "widely distributed throughout the retina"},
      {"measurement": "penetration of the retina-blood barrier", "setting": "retina; intravitreal injection and systemic administration", "result": "can penetrate the retina-blood barrier"}
    ]}
  ]
}
